The record followed here is patent US5162203A, “Methods of measuring isozymes and isozyme classes of alcohol dehydrogenase” (President and Fellows of Harvard College, priority 1989, dated 1992).

The nature of data set [1]: Spectral parameters for absorption and fluorescence of ADH substrates and products. The class given is physicochemical. As to conditions: for total decrease of molar absorptivity (aldehyde/NADH system): 340 nm, 40 mM Mes buffer, pH 7.1, with NADH. The procedure:
The spectral parameters for 4-methoxy-1-naphthaldehyde (IA), 6-methoxy-2-naphthaldehyde (IIA) and their reduction products (IB and IIB, respectively) are shown in Table I.
Ultraviolet absorption spectra were measured on a Cary 219 or Hewlett-Packard 8451 spectrophotometer. Fluorescence measurements were made in a Perkin Elmer MPF3 spectrofluorometer, equipped with an Osram XBO 150 Watt Xenon lamp, an R446 photomultiplier, and thermostatted cell holder through which water was passed from a Poly-Temp circulator with the following spectrometer settings: excitation wavelength 316 nm. bandwidth 8 nm for both substrate IA and IIA; emission wavelength. 370 nm for substrate IA and 360 nm for substrate IIA, emission bandwidth 24 nm. Changes in fluorescence as a result of oxidation or reduction of the substrate was then measured in the ratio mode. Generally, for fluorometric reactions (see part 8 below). a sensitivity setting of 3 was used with compensation of fluorescence background by the zero suppression control of the instrument.
(§1) Aldehyde reduction was monitored by following the decrease of absorption at 340 nm in 40 mM Mes buffer, pH 7.1. in the presence of saturating NADH, 50 μM for Class I and 100 μM for Class II. […] Initial reaction rates were measured and kinetic parameters determined by conventional procedures as described by Segel, 1975, Enzyme Kinetics, pp. 591-597, Wiley, N.Y.

The next data set concerns the target T1, αβ1 ADH (Class I) (Homo sapiens, UniProt P00325+P07327).
T1 construct: beta1 allele (ADH1B*1, Arg47 and Arg369 in mature count)
Put plainly: Kinetics of enzymatic reduction of methoxynaphthaldehydes by αβ1 ADH. The conditions noted are these: rate relative to ethanol oxidation at pH 10.0. The data set is classed as biochemical. The procedure:
(§2) Standard assays for ethanol oxidation activity (Dalziel, 1957, Acta Chem Scand 11:1706-23) were carried out on a Cary 219 spectrophotometer interfaced with an Apple IIe microcomputer, using software provided by Varian Associates. The reaction mixture contained 2.5 mM NAD^+ in 0.1M glycine-NaOH buffer. pH 10.0, and 33 mM or 0.2M ethanol for Class I and Class II ADH, respectively.
(§3) Aldehyde reduction was monitored by following the decrease of absorption at 340 nm in 40 mM Mes buffer, pH 7.1. in the presence of saturating NADH, 50 μM for Class I and 100 μM for Class II. […] Initial reaction rates were measured and kinetic parameters determined by conventional procedures as described by Segel, 1975, Enzyme Kinetics, pp. 591-597, Wiley, N.Y. […]
(§4) The linear increase of fluorescence was then recorded for 1-10 minutes, until 0.03-1 μM of substrate was consumed. […] The added product fluorescence intensity was then measured Fluorescence measurements were optimized for samples with low activity (<1 nM/minute). […] Rates measured in the presence of the 0.2 mM ADH inhibitors. […]
Additionally the reaction rates for these isozymes were compared to those measured by the standard assay for ethanol oxidation (see part 7 above) at pH 10.0 the optimum for oxidation of ethanol by ADH. […]

In the next data set the target is T2, αγ1 ADH (Class I) (Homo sapiens, UniProt P00326+P07327).
T2 construct: gamma1 allele (ADH1C*1, Arg271 and Ile349 in mature count)
T2 sequence (P07327 2-375): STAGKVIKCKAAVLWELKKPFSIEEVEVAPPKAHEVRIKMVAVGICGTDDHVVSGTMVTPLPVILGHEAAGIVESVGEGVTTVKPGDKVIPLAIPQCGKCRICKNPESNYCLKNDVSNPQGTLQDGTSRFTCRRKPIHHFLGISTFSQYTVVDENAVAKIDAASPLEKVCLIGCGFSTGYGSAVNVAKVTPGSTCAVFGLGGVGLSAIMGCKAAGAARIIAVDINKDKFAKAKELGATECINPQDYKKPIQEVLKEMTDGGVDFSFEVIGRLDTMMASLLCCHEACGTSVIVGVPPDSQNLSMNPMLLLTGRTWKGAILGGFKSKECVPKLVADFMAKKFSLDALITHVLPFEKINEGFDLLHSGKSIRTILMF
T2 sequence (P00326 2-375): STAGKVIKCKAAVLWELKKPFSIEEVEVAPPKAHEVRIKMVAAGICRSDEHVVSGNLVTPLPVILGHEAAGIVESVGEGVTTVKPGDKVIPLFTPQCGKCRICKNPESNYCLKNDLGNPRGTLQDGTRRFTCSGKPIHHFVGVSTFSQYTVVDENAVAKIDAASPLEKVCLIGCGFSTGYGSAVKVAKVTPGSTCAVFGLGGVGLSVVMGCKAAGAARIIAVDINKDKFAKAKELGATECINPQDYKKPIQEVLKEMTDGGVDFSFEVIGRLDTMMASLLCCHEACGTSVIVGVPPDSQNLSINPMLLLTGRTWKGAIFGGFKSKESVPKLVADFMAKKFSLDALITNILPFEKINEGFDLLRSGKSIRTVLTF
Put plainly: Kinetics of enzymatic reduction of methoxynaphthaldehydes by αγ1 ADH. The class given is biochemical. As to conditions: rate relative to ethanol oxidation at pH 10.0.

The test system of another data set is β1 β1 ADH (Class I). Put plainly: Kinetics of enzymatic reduction of methoxynaphthaldehydes by β1β1 ADH. The data set is classed as biochemical, human. The conditions noted are these: for Km / kcat: Table IV; for v/v (EtOH): rate relative to ethanol oxidation at pH 10.0. The procedure: as §2, §1
All reaction mixtures (3 ml total volume) were prepared directly in 1 cm pathlength, 4 ml fluorometric cuvettes by adding 150 μl of the 300 μM substrate solution (e.g substrate IA or IIA) 100 μl of the 1 mM NADH solution (prepared as in part 5 above) and 2.69 ml of assay buffer (0.1M phosphate, pH 7.6). After thermal equilibration (25° C.) for 5 minutes, 60 μl of isozyme sample (either serum or purified ADH isozymes) was added to the cuvette.
The linear increase of fluorescence was then recorded for 1-10 minutes, until 0.03-1 μM of substrate was consumed. Larger substrate consumption was not found to be desirable (described in subpart (c) below). After this period the instrument sensitivity setting was reduced 10-30 fold, the signal compensated once again by zero suppression (see part 6 above), and 60 μl of 200-400 μM product (e.g., product IB or IIB) was added to provide an internal standard. The added product fluorescence intensity was then measured Fluorescence measurements were optimized for samples with low activity (<1 nM/minute). For samples with higher activity, repeat measurements were made with the serum volume reduced from 60 μl to 10 μl. Rates measured in the presence of the 0.2 mM ADH inhibitors. 4-MeP or 4-PeP, were made by adding 50 μl of 12 mM inhibitor to the cuvette prior to the assay buffer, and the reaction was carried out as above.
The rates of aldehyde reduction, determined as initial velocities (V) and expressed in units of nM/minute, were calculated according to: [formula] where the quantity in parentheses is the slope of the linear fluorescence increase calculated from the quantities Ft and FO, the fluorescence at time t and at the beginning of the reaction, respectively. Cst is the concentration of the product used as a standard added to the cuvette after the initial rate had been measured and Fst is the fluorescence intensity of the added product
(§5) Additionally the reaction rates for these isozymes were compared to those measured by the standard assay for ethanol oxidation (see part 7 above) at pH 10.0 the optimum for oxidation of ethanol by ADH. The rate of IA reduction for all Class I isozymes except the β1 β1 form is 1.5- to 4-fold faster than that of ethanol oxidation as measured by the conventional ethanol oxidation assay. […] Table III illustrates that IIA is an excellent substrate for Class II (.eta.) ADH, with a rate of IIA reduction at least 8-fold faster than that of ethanol oxidation.

For the next data set, the target named is T3, β1 γ1 ADH (Class I) (Homo sapiens, UniProt P00325+P00326).
T3 construct: beta1 (ADH1B*1) and gamma1 (ADH1C*1) alleles
T3 sequence (P00325 whole entry): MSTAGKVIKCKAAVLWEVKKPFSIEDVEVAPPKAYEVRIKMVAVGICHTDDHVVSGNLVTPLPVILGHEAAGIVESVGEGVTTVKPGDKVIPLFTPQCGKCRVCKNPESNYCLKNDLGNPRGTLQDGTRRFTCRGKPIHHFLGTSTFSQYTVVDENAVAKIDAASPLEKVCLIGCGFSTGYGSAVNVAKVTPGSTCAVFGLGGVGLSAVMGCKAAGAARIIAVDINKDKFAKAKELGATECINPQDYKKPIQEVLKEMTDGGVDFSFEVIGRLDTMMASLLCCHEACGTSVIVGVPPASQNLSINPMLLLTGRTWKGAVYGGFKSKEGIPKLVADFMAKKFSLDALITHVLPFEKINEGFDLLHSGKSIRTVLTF
T3 sequence (P00326 whole entry): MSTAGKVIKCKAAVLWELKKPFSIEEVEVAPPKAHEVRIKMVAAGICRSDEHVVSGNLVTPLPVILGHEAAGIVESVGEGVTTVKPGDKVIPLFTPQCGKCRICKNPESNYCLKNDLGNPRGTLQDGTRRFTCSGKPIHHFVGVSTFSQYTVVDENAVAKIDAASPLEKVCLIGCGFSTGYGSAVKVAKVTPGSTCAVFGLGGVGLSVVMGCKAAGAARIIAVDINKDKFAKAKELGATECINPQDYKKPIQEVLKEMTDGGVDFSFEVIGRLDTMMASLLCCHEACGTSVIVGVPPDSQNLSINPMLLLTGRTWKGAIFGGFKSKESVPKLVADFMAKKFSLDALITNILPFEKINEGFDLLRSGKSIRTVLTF
Description: Kinetics of enzymatic reduction of methoxynaphthaldehydes by β1γ1 ADH. The data set is classed as biochemical. As to conditions: rate relative to ethanol oxidation at pH 10.0.

The target of a further data set is Class II (π) ADH (Homo sapiens, UniProt P08319). Put plainly: Kinetics of enzymatic reduction of methoxynaphthaldehydes by Class II ADH. The data set is classed as biochemical. As to conditions: for v/v (EtOH): rate relative to ethanol oxidation at pH 10.0.
Chain of Class II (π) ADH (P08319 whole entry): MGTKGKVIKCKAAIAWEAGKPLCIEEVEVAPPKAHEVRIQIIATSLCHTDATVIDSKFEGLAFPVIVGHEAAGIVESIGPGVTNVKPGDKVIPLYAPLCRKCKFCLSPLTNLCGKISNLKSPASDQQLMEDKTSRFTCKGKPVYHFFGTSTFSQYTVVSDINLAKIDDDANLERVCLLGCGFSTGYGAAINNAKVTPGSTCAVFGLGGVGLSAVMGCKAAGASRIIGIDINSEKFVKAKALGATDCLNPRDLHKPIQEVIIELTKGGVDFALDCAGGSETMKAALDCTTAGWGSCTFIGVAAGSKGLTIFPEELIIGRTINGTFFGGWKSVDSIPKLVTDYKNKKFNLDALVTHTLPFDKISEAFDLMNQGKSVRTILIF
The subject of a further data set is Horse ADH. Put plainly: Kinetics of enzymatic reduction of methoxynaphthaldehydes by horse ADH. The data set is classed as biochemical. The conditions noted are these: for Km / kcat: pH 7.0, 50 μM NADH, spectrophotometric, >90% EE isozyme; for v/v (EtOH): rate relative to ethanol oxidation at pH 10.0.
Description: Crystalline horse ADH was purchased from Boehringer-Mannheim (Indianapolis,Ind.). NAD^+ and NADH, both grade III, were obtained as preweighed samples from Sigma Chemical Co. (St. Louis, Mo.); isobutyramide was from Aldrich., ethanol (100%) was from U.S. Industrial Chemicals Co. (New York, N.Y.); Mes acid (2-(N-morpholino)ethanesulfonic acid) was recrystallized from water. All other reagents were of analytical grade. Deionized, glass-distilled water was used throughout.
as §2, §3, §5

The next data set has as its system human ADH isozymes. Put plainly: Kinetics of enzymatic reduction of methoxynaphthaldehydes by ADH isozymes (general). The data set is classed as biochemical. The procedure: as §1
All reaction mixtures (3 ml total volume) were prepared directly in 1 cm pathlength, 4 ml fluorometric cuvettes by adding 150 μl of the 300 μM substrate solution (e.g substrate IA or IIA) 100 μl of the 1 mM NADH solution (prepared as in part 5 above) and 2.69 ml of assay buffer (0.1M phosphate, pH 7.6). […]
as §4
The rates of aldehyde reduction, determined as initial velocities (V) and expressed in units of nM/minute, were calculated according to: [formula] where the quantity in parentheses is the slope of the linear fluorescence increase calculated from the quantities Ft and FO, the fluorescence at time t and at the beginning of the reaction, respectively. […]

[2] abbreviates: pH 7.0, 50 μM NADH, spectrophotometric.

T1 sequence (P07327 2-375): as the sequence (P07327 2-375) above
T1 sequence (P00325 2-375): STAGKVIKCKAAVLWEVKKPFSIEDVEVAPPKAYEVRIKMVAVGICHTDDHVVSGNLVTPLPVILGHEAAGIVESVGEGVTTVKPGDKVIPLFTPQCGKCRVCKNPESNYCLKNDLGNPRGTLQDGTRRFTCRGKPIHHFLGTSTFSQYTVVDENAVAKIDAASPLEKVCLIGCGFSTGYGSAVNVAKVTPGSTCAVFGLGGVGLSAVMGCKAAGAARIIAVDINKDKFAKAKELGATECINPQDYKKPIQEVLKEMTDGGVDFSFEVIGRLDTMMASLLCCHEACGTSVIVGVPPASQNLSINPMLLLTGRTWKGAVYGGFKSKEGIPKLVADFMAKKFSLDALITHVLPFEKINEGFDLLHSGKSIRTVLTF

Broadly, the Km is the substrate concentration at which the rate is half of its maximum. A word on the kcat: it is the maximal rate divided by the concentration of active sites. On to `COc1ccc(C=O)c2ccccc12` [IA, 4-methoxy-1-naphthaldehyde], for which the “total decrease of molar absorptivity (aldehyde/NADH system)” value in data set [1] was 18000 M⁻¹ cm⁻¹. In addition, the “Absorption εmax” value in data set [1] (Mes buffer (45 mM), pH 7.0) is recorded as 13,100 M^-1 cm^-1. Further, the “Absorption λmax” value in data set [1] (Mes buffer (45 mM), pH 7.0) is 332 nm. In addition, the “Fluorescence .phi. (quantum yield)” value in data set [1] (Mes buffer (45 mM), pH 7.0) is 0.003. Also, the “Fluorescence λmax” value in data set [1] (Mes buffer (45 mM), pH 7.0) is recorded as 420 nm. Also, the “v/v (EtOH)” value amounted to 1.59 on αβ1 ADH (Class I); 2.71 at αγ1 ADH (Class I); 0.08 with β1 β1 ADH (Class I); 0.93 at β1 γ1 ADH (Class I); 0.20 on Class II (π) ADH; 0.04 with Horse ADH. Further, the Km in the data set on β1 β1 ADH (Class I) came out at 4 µM; in the data set with Horse ADH it was 33 µM. The kcat was 0.033 s⁻¹ with β1 β1 ADH (Class I), 0.833 s⁻¹ on Class II (π) ADH (setting [2]) and 0.433 s⁻¹ in the data set on Horse ADH. Also, the “rate of reduction of IA versus IIA by Class I ββ isozymes” value in the data set on β1 β1 ADH (Class I) (words) is “much faster”. Also, in the data set with human ADH isozymes, the “Km of most, in particular γ-containing Class I isozymes” value is “close to or below 1”.
For `COc1ccc2cc(C=O)ccc2c1` [IIA, 6-methoxy-2-naphthaldehyde], the “total decrease of molar absorptivity (aldehyde/NADH system)” value in data set [1] worked out at 12700 M⁻¹ cm⁻¹. Besides, the “Absorption εmax” value in data set [1] (Mes buffer (45 mM), pH 7.0) is 14,400 M^-1 cm^-1. For the same compound, the “Absorption λmax” value in data set [1] (Mes buffer (45 mM), pH 7.0) was determined as 315 nm. For the same compound, the “Fluorescence .phi. (quantum yield)” value is 0.22 in data set [1] (Mes buffer (45 mM), pH 7.0) and 0.03 in data set [1] (in methanol). In addition, the “Fluorescence λmax” value is listed as 450 nm in data set [1] (Mes buffer (45 mM), pH 7.0) and 435 nm in data set [1] (in methanol). Further, the “v/v (EtOH)” value worked out at 0.74 at αβ1 ADH (Class I); 1.06 on αγ1 ADH (Class I); 4.85 in the data set on β1 β1 ADH (Class I); 0.53 at β1 γ1 ADH (Class I); 8.0 at Class II (π) ADH; 2.5 in the data set with Horse ADH. The Km was found to be 5.4 µM in the data set with β1 β1 ADH (Class I) and 2.2 µM in the data set with Horse ADH. In addition, the kcat with β1 β1 ADH (Class I) came to 1.28 s⁻¹; on Class II (π) ADH (Class II) it was 25 s⁻¹; at Class II (π) ADH (setting [2]), 25 s⁻¹; in the data set on Horse ADH, 35.83 s⁻¹. The “kcat for Class II relative to Class I isozymes” value on Class II (π) ADH amounted to 10 fold. In addition, the “rate of reduction relative to ethanol oxidation” value at Class II (π) ADH (Class II ADH) is “at least 8 fold”. Moreover, the “Km of most, in particular γ-containing Class I isozymes” value with human ADH isozymes is recorded as “close to or below 1”.
